Test results as given in patent US10145848B2, “Small-molecule hydrophobic tagging of fusion proteins and induced degradation of same” (YALE UNIVERSITY, priority 2010, dated 2018).
Residues, ends and D or L forms follow the SMILES beside them. *: point of attachment. Cbz = O=C(OCc1ccccc1)*

Legend:
Type in all cases: cell-based
[1] = molecular target: T1, luciferase-HaloTag fusion protein (Rhodococcus rhodochrous, UniProt P0A3G2, C176G/H272F/K175M/Y273L); assay: Luciferase assay in HEK 293T cells expressing luciferase-HaloTag; conditions: 1 μM, 24 hours
T1 construct: The HaloTag protein was obtained from pHT2 vector (Promega); luciferase (from pGL3-Basic); expressed in transfected cells
Experimental: (a) Chemical structures of the representative HaloTag Ligands: HyT5, HyT12, HyT13, HyT16, HyT21 and HyT22. (b) HEK 293T cells expressing HA-HaloTag-luciferase were treated with indicated compounds at 1 μM for 24 hours, at which point luciferase assays were performed.
Ten thousand stable HEK 293T cells infected with HA-luciferase-HaloTag were plated into each well in a 96-well plate. The next day, indicated HyT compounds were added in triplicate and the cells were cultured for another 24 hours. The cells were washed once with cold PBS and lysed in Passive Lysis Buffer (Promega). The luciferase activity was performed by Steady-Glo Luciferase Assay System (Promega) on a Wallac Victor 2 Plate Reader (Perkin Elmer) and the luciferase activity was normalized by protein concentration, as determined by the Bradford assay.
The inventors designed 21 structurally distinct scaffolds as the basis for our hydrophobic Tags (HyTs), and synthesized and tested 30 compounds across these scaffolds composed of hydrophobic moieties linked to the HaloTag haloalkane reactive linker (Table 1, FIG. 5). […]

[2] = molecular target: T2, HA-EGFP-HaloTag fusion protein (Rhodococcus rhodochrous, UniProt P0A3G2, C176G/H272F/K175M/Y273L); assay: Immunoblotting of HA-EGFP-HaloTag in Flp-In 293 cells; conditions: 10 μM pretreatment 1 hour, then 1 μM HyT13, 6 hours
T2 construct: The HaloTag protein was obtained from pHT2 vector (Promega); expressed in transfected cells
Experimental: Flp-In 293 cells expressing HA-EGFP-HaloTag were treated with indicated concentrations of HyT13 for 24 hours. The lysates were probed with anti-HA and anti-β-actin antibodies, with β-actin serving as a loading control. Shown is quantification of three separate experiments, with error bars representing SEM.
Flp-In 293 cells expressing HA-EGFP-HaloTag cells were treated for the indicated times with 1 μM HyT13 and the lysates were probed with anti-HA and anti-β-actin antibodies. The rightmost sample was treated with HyT13 for 24 hours, after which HyT13-free media was provided for 24 hours. Shown is quantification of three separate experiments, with error bars representing SEM.
The indicated cells were washed twice with cold PBS and the cells were lysed in lysis buffer (1×PBS, 1% NP-40, 1 mM EDTA, 40 mM HEPES) with protease inhibitors. The lysates were cleared by centrifugation at 10,000 g for 5 min. The total protein concentration was determined by Bradford assay and 50 μg of protein was loaded onto an 8% Bis-Tris gel. To solubilize polyubiquitinated and aggregated proteins upon proteasome inhibition^42 samples generated for FIG. 12d were lysed with a SDS lysis buffer (1×PBS, 1% NP-40, 1% SDS, 1% sodium deoxycholate, 1 mM EDTA, 40 mM HEPES) with protease inhibitors. The blots were processed by standard procedures with indicated antibodies, and the band intensities were quantified by ImageJ.
As the luciferase assay relied on the loss-of-activity of the luciferase-HaloTag fusion protein, we wanted to determine whether the decrease in luciferase activity resulted from the degradation of the entire fusion protein or perhaps simply inhibition of luciferase activity. We generated a stable Flp-In 293 cell line with a single integration site containing HA-EGFP-HaloTag fusion protein, and employed this cell line to perform kinetic studies with HyT13. […] Consistent with our previous observations, treatment of these cells with 1 μM of HyT13 for 24 hours reduced the mean fluorescence intensity of cells almost 7-fold. Together, these findings provide the first experimental evidence that hydrophobic tagging represents a viable strategy for the control of protein levels.

HEK293 or HeLa cells = assay: Cell viability with Resazurin (alamarBlue); conditions: indicated concentration, 24 hours
Experimental: HEK293 or HeLa cells were treated with indicated concentrations of HyT13 for 24 hours. The oxidation-reduction indicator Resazurin (alamarBlue, Invitrogen) was employed to determine cell viability.

| SMILES | luciferase activity [1] | effect of proteasome inhibitor on HyT13 mediated degradation [2] | cellular toxicity (positive control) (HEK293 or HeLa cells) |
| --- | --- | --- | --- |
| NCCOCCOCCOCCn1cc(CCC(=O)NCCOCCOCCOCC(=O)NCCOCCOCCCCCCCl)nn1 [HyT5, 3-(1-(2-(2-(2-(2-aminoethoxy)ethoxy)ethoxy)ethyl)-1H-1,2,3-triazol-4-yl)-N-(24-chloro-11-oxo-3,6,9,15,18-pentaoxa-12-azatetracosyl)propanamide] | did not decrease the luciferase activity | – | – |
| CC(C)C[C@@H](C=O)NC(=O)[C@H](CC(C)C)NC(=O)[C@H](CC(C)C)NC(=O)OCc1ccccc1 [MG132, reference compound] (Cbz-Leu-Leu-Leu-aldehyde) | – | blocked HyT13 mediated degradation | – |
| CC(=O)NC(CCc1ccccc1)C(=O)NC(CC(C)C)C(=O)NC(Cc1ccccc1)C(=O)NC(CC(C)C)C(=O)C1(C)CO1 (stereo not shown) [YU101, reference compound] | – | blocked HyT13 mediated degradation | toxic to cells |
